For 28 compounds, T/C results are on record in PubChem BioAssay AID256 (DTP/NCI, 2004).

Several values for one entry are separate records, joined by “and”; a condition that tells them apart may be missing. Equal values may be shown once. Toxic doses and inconclusive results are not listed.

In this assay the test system is CD2F1 mice, L1210 leukemia ip, survival T/C. Briefly: NCI In Vivo Anticancer Drug Screen. Data for tumor model L1210 Leukemia (intraperitoneal) in CD2F1 (CDF1) mice. As to conditions: higher = longer survival. In a few lines:
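Tumor-bearing mice (transplanted tumor) were split into treated and vehicle control groups, and the measured endpoint of each treated group was divided by that of its vehicle controls.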

[1] abbreviates: endpoint: mean survival time, dose: 100.0 mg/kg/injection, schedule: Q04DX003 (ip), vehicle: saline with Tween-80.
The mark [2] stands for this setting: endpoint: mean survival time, dose: 200.0 mg/kg/injection, schedule: Q04DX003 (ip), vehicle: saline with Tween-80.
The mark [3] stands for this setting: endpoint: mean survival time, dose: 400.0 mg/kg/injection, schedule: Q04DX003 (ip), vehicle: saline with Tween-80.
Where [4] appears, read: endpoint: mean survival time, dose: 100.0 mg/kg/injection, schedule: Q04DX002 (ip), vehicle: saline with Tween-80.
The mark [5] stands for this setting: endpoint: mean survival time, dose: 200.0 mg/kg/injection, schedule: Q04DX002 (ip), vehicle: saline with Tween-80.
Where [6] appears, read: endpoint: mean survival time, dose: 100.0 mg/kg/injection, schedule: Q01DX001 (ip), vehicle: saline with Tween-80.
Setting [7] is: endpoint: mean survival time, dose: 100.0 mg/kg/injection, schedule: Q01DX009 (ip), vehicle: saline with Tween-80.
Where [8] appears, read: endpoint: mean survival time, dose: 200.0 mg/kg/injection, schedule: Q01DX009 (ip), vehicle: saline with Tween-80.
Where [9] appears, read: endpoint: mean survival time, dose: 400.0 mg/kg/injection, schedule: Q01DX009 (ip), vehicle: saline with Tween-80.
[10] abbreviates: endpoint: mean survival time, dose: 100.0 mg/kg/injection, schedule: Q01DX001 (ip), vehicle: saline.
The mark [11] stands for this setting: endpoint: mean survival time, dose: 200.0 mg/kg/injection, schedule: Q01DX001 (ip), vehicle: saline.
[12] abbreviates: endpoint: mean survival time, dose: 400.0 mg/kg/injection, schedule: Q01DX001 (ip), vehicle: saline.
The mark [13] stands for this setting: endpoint: mean survival time, dose: 50.0 mg/kg/injection, schedule: Q04DX002 (ip), vehicle: saline with Tween-80.
The mark [14] stands for this setting: endpoint: mean survival time, dose: 200.0 mg/kg/injection, schedule: Q01DX001 (ip), vehicle: saline with Tween-80.
[15] abbreviates: endpoint: mean survival time, dose: 400.0 mg/kg/injection, schedule: Q01DX001 (ip), vehicle: saline with Tween-80.
Where [16] appears, read: endpoint: mean survival time, dose: 400.0 mg/kg/injection, schedule: Q04DX002 (ip), vehicle: saline with Tween-80.

For `Cc1c(-c2ccc(C3CCCCC3)cc2)nc2ccc(F)cc2c1C(=O)O`, the T/C runs as follows: (endpoint: median survival time, dose: 12.5 mg/kg/injection, schedule: Q01DX005 (ip), vehicle: Klucel (hydroxypropylcellulose) (HPC)) 109 % of control; (endpoint: median survival time, dose: 12.5 mg/kg/injection, schedule: Q01DX005 (ip), vehicle: sodium bicarbonate) 114 % of control and 104 % of control; (endpoint: median survival time, dose: 25.0 mg/kg/injection, schedule: Q01DX005 (ip), vehicle: Klucel (hydroxypropylcellulose) (HPC)) 110 % of control; (endpoint: median survival time, dose: 25.0 mg/kg/injection, schedule: Q01DX005 (ip), vehicle: sodium bicarbonate) 122 % of control and 108 % of control; (endpoint: median survival time, dose: 50.0 mg/kg/injection, schedule: Q01DX005 (ip), vehicle: sodium bicarbonate) 123 % of control and 124 % of control and 104 % of control; (endpoint: median survival time, dose: 100.0 mg/kg/injection, schedule: Q01DX005 (ip), vehicle: sodium bicarbonate) 120 % of control and 109 % of control. Also, the T/C by setting is: (endpoint: median survival time, dose: 100.0 mg/kg/injection, schedule: Q01DX009 (ip), vehicle: Klucel (hydroxypropylcellulose) (HPC)) 182 % of control; (endpoint: median survival time, dose: 200.0 mg/kg/injection, schedule: Q01DX009 (ip), vehicle: Klucel (hydroxypropylcellulose) (HPC)) 183 % of control; (endpoint: median survival time, dose: 400.0 mg/kg/injection, schedule: Q01DX009 (ip), vehicle: Klucel (hydroxypropylcellulose) (HPC)) 89 % of control.

For `COc1cc(C)c(Br)c(OC)c1`, the T/C is 92 % of control under setting [1], 99 % of control under setting [2] and 99 % of control under setting [3].

`O=C(c1ccccc1)c1ccc(OCCOc2ccc(C(=O)c3ccccc3)cc2)cc1`: the T/C under setting [1] was 96 % of control, the T/C under setting [2] was 93 % of control and the T/C under setting [3] is 93 % of control.

On to `O=c1[nH]nc([O-])c2c1[n+](Cc1ccccc1)cn2Cc1ccccc1`, for which the T/C was 94 % of control (endpoint: mean survival time, dose: 9.4 mg/kg/injection, schedule: Q01DX005 (ip), vehicle: water); 98 % of control (endpoint: mean survival time, dose: 18.8 mg/kg/injection, schedule: Q01DX005 (ip), vehicle: water); 91 % of control (endpoint: mean survival time, dose: 37.5 mg/kg/injection, schedule: Q01DX005 (ip), vehicle: water); 88 % of control (endpoint: mean survival time, dose: 75.0 mg/kg/injection, schedule: Q01DX005 (ip), vehicle: water).

As for `NC(=O)COc1ccc(Br)cc1`, the T/C under setting [4] is 102 % of control and the T/C under setting [5] is 98 % of control.

As to `O=C(NC1CCC(NC(=O)N2CC2)CC1)N1CC1` (stereo not drawn), the T/C reads like this: (endpoint: mean survival time, dose: 6.75 mg/kg/injection, schedule: Q01DX001 (ip), vehicle: carboxymethylcellulose (CMC)) 164 % of control; (endpoint: mean survival time, dose: 10.0 mg/kg/injection, schedule: Q01DX001 (ip), vehicle: carboxymethylcellulose (CMC)) 185 % of control; (endpoint: mean survival time, dose: 15.0 mg/kg/injection, schedule: Q01DX001 (ip), vehicle: carboxymethylcellulose (CMC)) 102 % of control.

As for `CC(C)=CCOC1=CC(=O)C(=O)c2ccccc21`, the T/C under setting [6] was 103 % of control.

For `CCCCN(C)C(=O)Oc1cccc(NC(=O)OC)c1`, the T/C was 94 % of control under setting [7] and 100 % of control under setting [8].

On to `O=C1CSC(=S)N1C1OC(CO)C(O)C1O` (stereo not drawn), for which the T/C by setting is: (endpoint: mean survival time, dose: 12.5 mg/kg/injection, schedule: Q01DX005 (ip), vehicle: distilled water + Tween-80) 111 % of control; (endpoint: mean survival time, dose: 25.0 mg/kg/injection, schedule: Q01DX005 (ip), vehicle: distilled water + Tween-80) 102 % of control; (endpoint: mean survival time, dose: 50.0 mg/kg/injection, schedule: Q01DX005 (ip), vehicle: distilled water + Tween-80) 102 % of control; (endpoint: mean survival time, dose: 100.0 mg/kg/injection, schedule: Q01DX005 (ip), vehicle: distilled water + Tween-80) 101 % of control; (endpoint: mean survival time, dose: 200.0 mg/kg/injection, schedule: Q01DX005 (ip), vehicle: distilled water + Tween-80) 92 % of control.

Regarding `CC(C#N)N(C)C` (stereo not drawn), the T/C runs as follows: (endpoint: mean survival time, dose: 10.0 mg/kg/injection, schedule: Q04DX003 (ip), vehicle: saline) 97 % of control; (endpoint: mean survival time, dose: 20.0 mg/kg/injection, schedule: Q04DX003 (ip), vehicle: saline) 104 % of control; (endpoint: mean survival time, dose: 40.0 mg/kg/injection, schedule: Q04DX003 (ip), vehicle: saline) 97 % of control.

Take `CC1(C)C2CC=C(CCCc3ccccc3)C1C2` (stereo not drawn): the T/C under setting [1] was 98 % of control and the T/C under setting [2] is 93 % of control.

In the case of `Cc1ccc(S(=O)(=O)OC2C3OCC(O3)C3OC(C)OC32)cc1` (stereo not drawn), the T/C reads like this: under setting [7], 92 % of control; under setting [8], 95 % of control; under setting [9], 95 % of control.

Regarding `CC1CCC2(C(=O)O)CCC3(C)C(=CCC4C5(C)CCC(O)C(C)(C)C5CCC43C)C2C1C` (stereo not drawn), the T/C runs as follows: under setting [10], 98 % of control; under setting [11], 98 % of control; under setting [12], 96 % of control.

With `C=C(Cc1ccccc1)C(=O)O`, the T/C by setting is: (endpoint: mean survival time, dose: 25.0 mg/kg/injection, schedule: Q04DX002 (ip), vehicle: saline with Tween-80) 92 % of control; under setting [13], 92 % of control; under setting [4], 95 % of control.

On to `CC(Br)C1(c2ccccc2)OCCO1` (stereo not drawn), for which the T/C is, setting by setting: under setting [6], 100 % of control; under setting [7], 114 % of control; under setting [1], 104 % of control; under setting [14], 94 % of control; under setting [2], 111 % of control; under setting [15], 102 % of control. Moreover, under setting [3], the T/C is 101 % of control.

With `O=c1[nH]c(-c2ccccc2)nc(-c2ccc(Cl)cc2)c1CCO`, the T/C is 95 % of control under setting [7]; 91 % of control under setting [8]; 91 % of control under setting [2]; 96 % of control under setting [9]; 86 % of control under setting [3].

As for `CCOC(=O)/C=C(/C)N`, the T/C by setting is: under setting [10], 101 % of control; under setting [11], 101 % of control; under setting [12], 107 % of control.

As for `C=C(Br)CNC(=O)NCCN1CCOCC1`, the T/C under setting [7] is 97 % of control, the T/C under setting [8] is 92 % of control and the T/C under setting [9] was 89 % of control.

Consider `CN(C)CC1CCCCCC(Br)C1O` (stereo not drawn), for which the T/C reads like this: (endpoint: mean survival time, dose: 75.0 mg/kg/injection, schedule: Q01DX001 (ip), vehicle: saline) 100 % of control; (endpoint: mean survival time, dose: 150.0 mg/kg/injection, schedule: Q01DX001 (ip), vehicle: saline) 94 % of control.

On to `CCOC(=O)c1ccc(NCC2=Nc3c(N)nc(N)nc3NC2)cc1`, for which the T/C is, setting by setting: (endpoint: mean survival time, dose: 12.5 mg/kg/injection, schedule: Q01DX001 (ip), vehicle: carboxymethylcellulose (CMC)) 95 % of control; (endpoint: mean survival time, dose: 25.0 mg/kg/injection, schedule: Q01DX001 (ip), vehicle: carboxymethylcellulose (CMC)) 108 % of control; (endpoint: mean survival time, dose: 50.0 mg/kg/injection, schedule: Q01DX001 (ip), vehicle: carboxymethylcellulose (CMC)) 96 % of control.

`Nc1ccc2nc3ccc(N)cc3[n+](-c3ccccc3)c2c1`: the T/C runs as follows: (endpoint: mean survival time, dose: 6.0 mg/kg/injection, schedule: Q01DX009 (ip), vehicle: saline) 105 % of control; (endpoint: mean survival time, dose: 8.0 mg/kg/injection, schedule: Q01DX009 (ip), vehicle: saline) 105 % of control; (endpoint: mean survival time, dose: 12.0 mg/kg/injection, schedule: Q01DX009 (ip), vehicle: saline) 110 % of control.

For `[N-]=[N+]=CC(=O)NCC(=O)NCCNCCO`, the T/C was 156 % of control (endpoint: mean survival time, dose: 400.0 mg/kg/injection, schedule: Q01DX009 (ip), vehicle: other); 164 % of control (endpoint: mean survival time, dose: 600.0 mg/kg/injection, schedule: Q01DX009 (ip), vehicle: other); 155 % of control (endpoint: mean survival time, dose: 800.0 mg/kg/injection, schedule: Q01DX009 (ip), vehicle: other).

Turning to `CN1CCC(C(O)c2ccccc2)CC1` (stereo not drawn), the T/C by setting is: under setting [1], 102 % of control; under setting [2], 100 % of control; under setting [3], 88 % of control.

Regarding `CN(CCOS(C)(=O)=O)CCOS(C)(=O)=O`, the T/C (endpoint: mean survival time, dose: 5.0 mg/kg/injection, schedule: Q01DX001 (ip), vehicle: saline) is 121 % of control.

On to `CCC(O)C(C)[N+](=O)[O-]` (stereo not drawn), for which the T/C is, setting by setting: (endpoint: mean survival time, dose: 50.0 mg/kg/injection, schedule: Q01DX009 (ip), vehicle: saline with Tween-80) 95 % of control; under setting [7], 102 % of control; under setting [8], 95 % of control.

For `NC(=O)N/N=C1/CC2CC1C1C=CCC21` (stereo not drawn), the T/C is 102 % of control under setting [4], 107 % of control under setting [5] and 98 % of control under setting [16].

As to `COc1ccc(OC)c(/C=C(/C#N)C(N)=O)c1`, the T/C was 104 % of control under setting [13]; 93 % of control under setting [4]; 91 % of control under setting [14]; 93 % of control under setting [5]; 90 % of control under setting [15].

In the case of `O=C=NC(=O)c1ccccc1`, the T/C by setting is: under setting [4], 96 % of control; under setting [5], 100 % of control; under setting [16], 118 % of control.
